Data: US10588865B2, “Tamper resistant oral opioid agonist formulations” (Purdue Pharma L.P., priority 2000, dated 2020)
Counter-ions that a name gives are not always drawn.

How the values were obtained:
[1] = in comparison to a 15 mg dose of hydrocodone
Text: In certain preferred embodiments, the opioid agonist is oxycodone or hydrocodone.

[2] = after oral doses; cited from earlier work
[3] = cited from earlier work
man = details: cited from earlier work
normal subjects = assay: Example 19: effect of naltrexone on subjective and physiological effects of 15 mg hydrocodone; assay type: in vivo
[4] = system: methadone-dependent subjects; details: immediate-release naltrexone, interim analysis
[5] = system: morphine-dependent subjects; assay: Example 17: precipitated withdrawal after hydrocodone immediate release tablets with naltrexone
[6] = suggested by clinical data of examples 17, 18 and 19

With `COc1ccc2c3c1O[C@H]1[C@@H](O)C=C[C@H]4[C@@H](C2)N(C)CC[C@@]341` [Codeine] the “Calculated Dose (equianalgesic dose)” value [1] was 90.0 mg.

With `COc1ccc2c3c1OC1C(=O)CC[C@H]4[C@@H](C2)N(C)CC[C@]314` (stereo partly drawn) [Hydrocodone, 4,5-epoxy-3-methoxy-17-methylmorphinan-6-one] the “Calculated Dose (equianalgesic dose)” value [1] was 15.0 mg.

For `CN1CC[C@]23CCCC[C@H]2[C@H]1Cc1ccc(O)cc13` [Levorphanol], the “Calculated Dose (equianalgesic dose)” value [1] was 1.8 mg.

In the case of `CCC(=O)C(CC(C)N(C)C)(c1ccccc1)c1ccccc1` (stereo not drawn) [Methadone], the “Calculated Dose (equianalgesic dose)” value [1] is reported as 9.0 mg.

With `COc1ccc2c3c1O[C@H]1C(=O)CC[C@@]4(O)[C@@H](C2)N(C)CC[C@]314` [Oxycodone, 4,5-expoxy-14-hydroxy-3-methoxy-17-methylmorphinan-6-one] the “Calculated Dose (equianalgesic dose)” value [1] was 13.5 mg.

For `C[C@H]1[C@H]2Cc3ccc(O)cc3[C@]1(C)CCN2CC1CC1` [cyclazocine], the duration of action [2] is given as ~24 h.

In the case of `O=C1CC[C@@]2(O)[C@H]3Cc4ccc(O)c5c4[C@@]2(CCN3CC2CC2)[C@H]1O5` [hydrochloride salt of naltrexone, Naltrexone HCl], the “water solubility” value [3] is listed as “very water-soluble” and the solubility in water ([3]; hydrochloride salt) is listed as “about 100 mg/cc”.

In the case of `C=CCN1CC[C@]23c4c5ccc(O)c4O[C@H]2C(=O)CC[C@@]3(O)[C@H]1C5` [naloxone], the “block of the effect of 25 mg of heroin” value (man; One mg intravenously) is given as “completely block”, the “dose that prevents or promptly reverses the effects of morphine-like opioid agonist” value (man; given intramuscularly or intravenously in man) is given as 0.4 to 0.8 mg and the “potency after oral administration compared with parenteral administration” value (man; oral, first passage through the liver) is given as “significantly lower potency”.

For `O=C1CC[C@@]2(O)[C@H]3Cc4ccc(O)c5c4[C@@]2(CCN3CC2CC2)[C@H]1O5` [naltrexone], the “dose able to antagonize several centrally mediated opioid effects of hydrocodone, including pupillary miosis” value (normal subjects; 15 mg hydrocodone) was 0.4 mg, the “bio-available, immediate-release dose that will not affect analgesia to any significant degree” value (normal subjects; [6]) was 0.125 mg and the “prompt release of bio-available drug that will affect analgesia” value (normal subjects; [6]) was ≥ 0.25 mg. The “dose able to elicit the signs and symptoms of withdrawal” value [4] was 0.5 mg, the “liking of the agonist” value ([5]; 1 mg naltrexone dose with hydrocodone immediate release tablets, opioid-dependent subjects) was “less liking of the agonist relative to the combination with placebo” and the withdrawal signs ([5]; subjects in example 17 receiving the 0.25-mg) was “absence of withdrawal signs”.

For Meperidine, the “Calculated Dose (equianalgesic dose)” value [1] was 135.0 mg.
